Source: US10869931B2, “Polyethylene glycol-modified angiogenesis inhibitor HM-1 and application thereof” (NANJING ANJI BIOLOGICAL TECHNOLOGY CO.,LTD, priority 2016, dated 2020)
Where no end group is shown, it is not given here.

Key:
[1] = tested on: Head and neck cancer tumor cells; assay: MTT proliferation inhibition, head and neck cancer cells; assay type: cell-based, human; design: concentration or dose not given beside the values; details: 48 h
Procedure: (§1) The activity of mPEG-HM-1 to inhibit the growth of various tumor cells was examined by MTT assay. The tumor cells were cultured to a concentration of 90% or more in a 37° C., 5% CO2 incubator and collected by trypsinization. The cells were resuspended in the culture medium and counted under a microscope to adjust the cell concentration to 2×10^4 cells/mL, the cell suspension was inoculated into a 96-well plate at 100 μL/well and incubated overnight at 37° C. in a 5% CO2 incubator. mPEG-HM-1 was diluted with the culture solution to each predetermined concentration. Docetaxel is diluted to the final concentration with the culture medium. After the cells were fully attached, each dilution was added to a 96-well plate (100 μL/well). The mPEG-HM-1 dilution was added as a drug-administered group, and docetaxel was added as a positive control group, and a culture solution without any drug was used as a negative control group. Incubate for 48 h at 37° C. in a 5% CO2 incubator. 5 mg/mL of MTT was added to a 96-well plate at 20 μL per well, and incubation was continued for 4 hours. The medium was aspirated, dissolved in 150 μL of DMSO per well, and gently mixed by shaking for 10 min. The absorbance was measured at a measurement wavelength of 570 nm and a reference wavelength of 630 nm using a microplate reader, and the rate of growth inhibition (proliferation inhibition, PI) was calculated. The formula is as follows: PI (%)=1−administration group/negative group
(§2) The test was repeated 3 times independently, and the results obtained by the test were expressed as mean±SD, and the test results are shown in Table 15 to Table 18.

Brain tumor cells = assay: MTT proliferation inhibition, brain tumor cells; assay type: cell-based, human; design: concentration or dose not given beside the values; details: 48 h
Procedure: as §1, §2

[2] = tested on: Thyroid cancer tumor cells; assay: MTT proliferation inhibition, thyroid cancer cells; assay type: cell-based, human; design: concentration or dose not given beside the values; details: 48 h
Procedure: as §1, §2

[3] = tested on: Esophageal cancer tumor cells; assay: MTT proliferation inhibition, esophageal cancer cells; assay type: cell-based, human; design: concentration or dose not given beside the values; details: 48 h
Procedure: as §1, §2

[4] = tested on: Pancreatic cancer tumor cells; assay: MTT proliferation inhibition, pancreatic cancer cells; assay type: cell-based, human; design: concentration or dose not given beside the values; details: 48 h
Procedure: as §1, §2

[5] = tested on: Ovarian cancer tumor cells; assay: MTT proliferation inhibition, ovarian cancer cells; assay type: cell-based, human; design: concentration or dose not given beside the values; details: 48 h
Procedure: as §1, §2

[6] = tested on: Uterine cancer tumor cells; assay: MTT proliferation inhibition, uterine cancer cells; assay type: cell-based, human; design: concentration or dose not given beside the values; details: 48 h
Procedure: as §1, §2

Melanoma tumor cells = assay: MTT proliferation inhibition, melanoma cells; assay type: cell-based, human; design: concentration or dose not given beside the values; details: 48 h
Procedure: as §1, §2

Hemangioma tumor cells = assay: MTT proliferation inhibition, hemangioma cells; assay type: cell-based, human; design: concentration or dose not given beside the values; details: 48 h
Procedure: as §1, §2

sarcoma tumor cells = assay: MTT proliferation inhibition, sarcoma cells; assay type: cell-based, human; design: concentration or dose not given beside the values; details: 48 h
Procedure: as §1, §2

[7] = tested on: collagen induced arthritis (CIA) in DBA/1 mice; assay: Collagen-induced mouse arthritis (CIA) model; assay type: in vivo; details: CIA DBA/1 mice; for Clinical score: maximum score 16
[8] = tested on: adjuvant arthritis (AA) SD rats; assay: Adjuvant arthritis (AA) rat model; assay type: in vivo; details: AA SD rats; for Clinical score: maximum score 16
[9] = tested on: choroidal neovascularization in BN rats; assay: Laser-induced choroidal neovascularization in BN rats (FFA); assay type: in vivo, rat
Procedure: 6-8 weeks old male BN rats were anesthetized with 846 compound anesthetic 0.5 mL/kg administered intraperitoneally. The eye drops of compound tropamide eyes were used 5 minutes before laser photocoagulation, and the pupils of both eyes were fully scattered. Fix animals, with the aid of −53.00 D contact lens, around the optic disc and along the same distance from the optic disc 2PD, the laser beam photocoagulation were performed to make a total of 8 photo-condensation spots, with laser wavelength of 647.1 nm, power of 350 mW, photocoagulation spot diameter and time were 50 μm and 0.05 s, respectively. Immediately after photocoagulation, fundus photography was performed. FFA, histopathology and transmission electron microscopy were performed at 3, 7, 14, 21, and 28 days after photocoagulation.
It was confirmed by fundus photography and FFA examination that the fluorescein leakage of photocoagulation peaked on the 21st day after photocoagulation, and histopathological examination was performed at the same time. […] A large number of neovascular vessels were seen, and red blood cells were visible in the lumen. Microscopically, capillary cells in the choroidal melanocytes were cohesively altered and endothelial cells aggregated.
Rats that were successfully modeled were randomly divided into groups of 5 rats each. They were labeled as negative control group, mPEG-SC-HM-1 treatment group, mPEG2-NHS-HM-1 treatment group, mPEG-ALD-HM-1 treatment group and mPEG-bALD-HM-1 treatment group, respectively. Saline, mPEG-HM-1 (see Table 53 for dosing) was administered intravitreally, once daily for 1 week. FFA examinations were performed 3 days, 7 days, 14 days, and 28 days after administration of the modified peptides.

[10] = 40 mg/kg subcutaneous from day 30 of modeling
[11] = 40 mg/kg subcutaneous once every three days
[12] = 80 mg/kg subcutaneous from day 30 of modeling
[13] = 80 mg/kg subcutaneous once every three days
[14] = 10 mg/kg subcutaneous from day 30 of modeling
[15] = 10 mg/kg subcutaneous once every three days

## mPEG-ALD20k-Arg-Gly-Ala-Asp-Arg-Ala-Gly-Gly-Gly-Gly-Arg-Gly-Asp ({mPEG‑ALD 20 kDa}-RGADRAGGGGRGD) [mPEG-ALD20k-HM-1]
[1]
  rate of growth inhibition: 47.61 ± 10.68%
Brain tumor cells
  rate of growth inhibition: 56.89 ± 15.41%
[2]
  rate of growth inhibition: 50.35 ± 15.23%
[3]
  rate of growth inhibition: 60.18 ± 15.32%
[4]
  rate of growth inhibition: 70.65 ± 20.29%
[5]
  rate of growth inhibition: 80.68 ± 21.69%
[6]
  rate of growth inhibition: 89.37 ± 23.47%
Melanoma tumor cells
  rate of growth inhibition: 80.71 ± 23.46%
Hemangioma tumor cells
  rate of growth inhibition: 53.30 ± 16.06%
Sarcoma tumor cells
  rate of growth inhibition: 50.96 ± 11.68%
[7]; [10]
  Joint swelling: 0.72 ± 0.16 mm
  Left and right paw swelling: 0.74 ± 0.13 mm
  Clinical score: 8.66 ± 1.38
[8]; [11]
  Joint swelling: 0.76 ± 0.21 mm
  Left and right paw swelling: 3.77 ± 0.62 mm
  Clinical score: 5.67 ± 1.08
[9]; Day 3 after administration, 100 μg intravitreally once daily for 1 week (Table 53)
  CNV Incidence rate: 51.72%
[9]; Day 3 after administration, 100 μg intravitreally once daily for 1 week (Table 53), total spots 290-296 by table
  leakage Spots #: 150
[9]; Day 7, 100 μg intravitreally once daily for 1 week (Table 53)
  CNV Incidence rate: 48.90%
[9]; Day 7, 100 μg intravitreally once daily for 1 week (Table 53), total spots 182-188 by table
  leakage Spots #: 89
[9]; Day 14, 100 μg intravitreally once daily for 1 week (Table 53)
  CNV Incidence rate: 45.45%
[9]; Day 14, 100 μg intravitreally once daily for 1 week (Table 53), total spots 132-138 by table
  leakage Spots #: 60
[9]; Day 28, 100 μg intravitreally once daily for 1 week (Table 53)
  CNV Incidence rate: 40.85%
[9]; Day 28, 100 μg intravitreally once daily for 1 week (Table 53), total spots 67-71 by table
  leakage Spots #: 29

## mPEG-ALD40k-Arg-Gly-Ala-Asp-Arg-Ala-Gly-Gly-Gly-Gly-Arg-Gly-Asp ({mPEG‑ALD 40 kDa}-RGADRAGGGGRGD) [mPEG-ALD40k-HM-1]
[1]
  rate of growth inhibition: 42.18 ± 10.01%
Brain tumor cells
  rate of growth inhibition: 50.69 ± 14.41%
[2]
  rate of growth inhibition: 49.03 ± 13.08%
[3]
  rate of growth inhibition: 58.11 ± 14.67%
[4]
  rate of growth inhibition: 65.31 ± 19.81%
[5]
  rate of growth inhibition: 74.61 ± 20.09%
[6]
  rate of growth inhibition: 82.59 ± 21.37%
Melanoma tumor cells
  rate of growth inhibition: 75.18 ± 21.75%
Hemangioma tumor cells
  rate of growth inhibition: 50.67 ± 14.02%
Sarcoma tumor cells
  rate of growth inhibition: 45.93 ± 10.77%
[7]; [12]
  Joint swelling: 0.77 ± 0.14 mm
  Left and right paw swelling: 0.79 ± 0.12 mm
  Clinical score: 8.97 ± 1.42
[8]; [13]
  Joint swelling: 0.73 ± 0.17 mm
  Left and right paw swelling: 3.80 ± 0.65 mm
  Clinical score: 5.76 ± 1.03
[9]; Day 3 after administration, 200 μg intravitreally once daily for 1 week (Table 53)
  CNV Incidence rate: 52.41%
[9]; Day 3 after administration, 200 μg intravitreally once daily for 1 week (Table 53), total spots 290-296 by table
  leakage Spots #: 152
[9]; Day 7, 200 μg intravitreally once daily for 1 week (Table 53)
  CNV Incidence rate: 50.55%
[9]; Day 7, 200 μg intravitreally once daily for 1 week (Table 53), total spots 182-188 by table
  leakage Spots #: 92
[9]; Day 14, 200 μg intravitreally once daily for 1 week (Table 53)
  CNV Incidence rate: 46.97%
[9]; Day 14, 200 μg intravitreally once daily for 1 week (Table 53), total spots 132-138 by table
  leakage Spots #: 62
[9]; Day 28, 200 μg intravitreally once daily for 1 week (Table 53)
  CNV Incidence rate: 42.25%
[9]; Day 28, 200 μg intravitreally once daily for 1 week (Table 53), total spots 67-71 by table
  leakage Spots #: 30

## mPEG-SC5k-Arg-Gly-Ala-Asp-Arg-Ala-Gly-Gly-Gly-Gly-Arg-Gly-Asp ({mPEG‑SC 5 kDa}-RGADRAGGGGRGD) [mPEG-SC5k-HM-1]
[1]
  rate of growth inhibition: 40.27 ± 11.36%
Brain tumor cells
  rate of growth inhibition: 42.18 ± 12.29%
[2]
  rate of growth inhibition: 39.23 ± 13.18%
[3]
  rate of growth inhibition: 44.38 ± 10.72%
[4]
  rate of growth inhibition: 51.37 ± 16.23%
[5]
  rate of growth inhibition: 60.81 ± 20.27%
[6]
  rate of growth inhibition: 60.25 ± 16.09%
Melanoma tumor cells
  rate of growth inhibition: 61.27 ± 18.13%
Hemangioma tumor cells
  rate of growth inhibition: 43.68 ± 12.53%
Sarcoma tumor cells
  rate of growth inhibition: 39.42 ± 11.15%
[7]; [14]
  Joint swelling: 0.81 ± 0.12 mm
  Left and right paw swelling: 0.79 ± 0.11 mm
  Clinical score: 9.10 ± 1.27
[8]; [15]
  Joint swelling: 0.74 ± 0.18 mm
  Left and right paw swelling: 3.96 ± 0.71 mm
  Clinical score: 5.95 ± 1.07
[9]; Day 3 after administration, 25 μg intravitreally once daily for 1 week (Table 53)
  CNV Incidence rate: 54.73%
[9]; Day 3 after administration, 25 μg intravitreally once daily for 1 week (Table 53), total spots 290-296 by table
  leakage Spots #: 162
[9]; Day 7, 25 μg intravitreally once daily for 1 week (Table 53)
  CNV Incidence rate: 53.19%
[9]; Day 7, 25 μg intravitreally once daily for 1 week (Table 53), total spots 182-188 by table
  leakage Spots #: 100
[9]; Day 14, 25 μg intravitreally once daily for 1 week (Table 53)
  CNV Incidence rate: 48.15%
[9]; Day 14, 25 μg intravitreally once daily for 1 week (Table 53), total spots 132-138 by table
  leakage Spots #: 65
[9]; Day 28, 25 μg intravitreally once daily for 1 week (Table 53)
  CNV Incidence rate: 47.76%
[9]; Day 28, 25 μg intravitreally once daily for 1 week (Table 53), total spots 67-71 by table
  leakage Spots #: 32
